Measurements taken from US20100267561A1, “HERBICIDAL PYRIDAZINONE DERIVATIVES” (priority 2007, published 2010).

Experiments:
Test in all cases: Test B pre-/postemergence plant response
Format in all cases: in vivo
Settings in all cases: Preemergence
[1] = system: Russian thistle (Salsola iberica)
Summary of the method: (§1)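 Visual scoring from 0 (no effect) to 100 (complete control) against untreated controls was done 13 to 15 days after greenhouse treatment. Chemicals were formulated in a surfactant-containing non-phytotoxic solvent and applied to soil preemergence or to 1- to 4-leaf (2-18 cm) plants postemergence.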

[2] = system: blackgrass (Alopecurus myosuroides)
Summary of the method: as §1

[3] = system: cocklebur (Xanthium strumarium)
Summary of the method: as §1

[4] = system: common (oilseed) sunflower (Helianthus annuus)
Summary of the method: as §1

[5] = system: common ragweed (Ambrosia elation)
Summary of the method: as §1

corn (Zea mays) = system: corn (Zea mays)
Summary of the method: as §1

[6] = system: downy bromegrass (Bromus tectorum)
Summary of the method: as §1

[7] = system: eastern black (E.B.) nightshade (Solanum ptycanthum)
Summary of the method: as §1

[8] = system: green foxtail (Setaria viridis)
Summary of the method: as §1

[9] = system: surinam grass (Brachiaria decumbens)
Summary of the method: as §1

[10] = system: wheat (Triticum aestivum)
Summary of the method: as §1

wild oat (Avena fatua) = system: wild oat (Avena fatua)
Summary of the method: as §1

[11] = system: woolly cupgrass (Eriochloa villosa)
Summary of the method: as §1

[12] = system: yellow nutsedge (Cyperus esculentus)
Summary of the method: as §1

[13] = 16 g ai/ha, scale 0 to 100 (0 no effect, 100 complete control)
[14] = 31 g ai/ha, scale 0 to 100 (0 no effect, 100 complete control)
[15] = 31 g ai/ha, 0 to 100 scale, 0 no effect, 100 complete control
[16] = 62 g ai/ha, 0 to 100 scale, 0 no effect, 100 complete control

Question: Which results are given for `Cc1ccc(-c2ccc(Cl)cc2)cc1-c1c(O)cnn(C)c1=O` [Compound 46]?
Answer: Plant response rating, Russian Thistle [1, 13]: 0; Plant response rating, Russian Thistle [1, 14]: 0; Plant response rating, Russian Thistle ([1]; 62 g ai/ha, scale 0 to 100): 0; Russian Thistle plant response rating ([1]; 8 g ai/ha, scale 0 to 100): 0; Plant response rating, Blackgrass [2, 13]: 30; Plant response rating, Blackgrass [2, 15]: 40; Plant response rating, Blackgrass ([2]; 62 g ai/ha, scale 0 to 100): 85; Blackgrass plant response rating ([2]; 8 g ai/ha, scale 0 to 100): 0; Plant response rating, Cocklebur [3, 13]: 0; Plant response rating, Cocklebur [3, 15]: 0; Plant response rating, Cocklebur ([3]; 62 g ai/ha, scale 0 to 100): 0; Cocklebur plant response rating ([3]; 8 g ai/ha, scale 0 to 100): 0; Plant response rating, Sunflower [4, 13]: 0; Plant response rating, Sunflower [4, 14]: 0; Plant response rating, Sunflower ([4]; 62 g ai/ha, scale 0 to 100): 0; Sunflower plant response rating ([4]; 8 g ai/ha, scale 0 to 100): 0; Plant response rating, Ragweed [5, 13]: 0; Plant response rating, Ragweed [5, 14]: 0; Plant response rating, Ragweed ([5]; 62 g ai/ha, scale 0 to 100): 0; Ragweed plant response rating ([5]; 8 g ai/ha, scale 0 to 100): 0; Plant response rating, Corn (corn (Zea mays); [13]): 0; Plant response rating, Corn (corn (Zea mays); [15]): 0; Plant response rating, Corn (corn (Zea mays); 62 g ai/ha, scale 0 to 100): 0; Corn plant response rating (corn (Zea mays); 8 g ai/ha, scale 0 to 100): 0; Plant response rating, Bromegrass, Downy [6, 13]: 0; Plant response rating, Bromegrass, Downy [6, 15]: 0; Plant response rating, Bromegrass, Downy ([6]; 62 g ai/ha, scale 0 to 100): 5; Bromegrass, Downy plant response rating ([6]; 8 g ai/ha, scale 0 to 100): 0; Plant response rating, Nightshade, E. B. [7, 13]: 0; Plant response rating, Nightshade, E. B. [7, 14]: 20; Plant response rating, Nightshade, E. B. ([7]; 62 g ai/ha, scale 0 to 100): 100; Nightshade, E. B. plant response rating ([7]; 8 g ai/ha, scale 0 to 100): 0; Plant response rating, Foxtail, Green [8, 13]: 10; Plant response rating, Foxtail, Green [8, 15]: 80; Plant response rating, Foxtail, Green ([8]; 62 g ai/ha, scale 0 to 100): 100; Foxtail, Green plant response rating ([8]; 8 g ai/ha, scale 0 to 100): 0; Plant response rating, Surinam Grass [9, 13]: 0; Plant response rating, Surinam Grass [9, 14]: 0; Plant response rating, Surinam Grass [9, 16]: 0; Surinam Grass plant response rating ([9]; 8 g ai/ha, scale 0 to 100): 0; Plant response rating, Wheat [10, 13]: 0; Plant response rating, Wheat [10, 14]: 0; Plant response rating, Wheat [10, 16]: 0; Wheat plant response rating ([10]; 8 g ai/ha, scale 0 to 100): 0; Plant response rating, Oat, Wild (wild oat (Avena fatua); [13]): 0; Plant response rating, Oat, Wild (wild oat (Avena fatua); [14]): 0; Plant response rating, Oat, Wild (wild oat (Avena fatua); 62 g ai/ha, scale 0 to 100): 35; Oat, Wild plant response rating (wild oat (Avena fatua); 8 g ai/ha, scale 0 to 100): 0; Plant response rating, Cupgrass, Woolly [11, 13]: 0; Plant response rating, Cupgrass, Woolly [11, 15]: 85; Plant response rating, Cupgrass, Woolly ([11]; 62 g ai/ha, scale 0 to 100): 98; Cupgrass, Woolly plant response rating ([11]; 8 g ai/ha, scale 0 to 100): 0; Plant response rating, Nutsedge, Yellow [12, 13]: 0; Plant response rating, Nutsedge, Yellow [12, 14]: 0; Plant response rating, Nutsedge, Yellow ([12]; 62 g ai/ha, scale 0 to 100): 0; Nutsedge, Yellow plant response rating ([12]; 8 g ai/ha, scale 0 to 100): 0
